Literature values as cited in patent US20230062279A1, “PHARMACEUTICAL COMPOSITIONS OF BORTEZOMIB” (EXTROVIS AG, priority 2021, published 2023).
Where two headings read alike, the source gives them in different places.

**Q.** With CC(C)C[C@H](NC(=O)[C@H](Cc1ccccc1)NC(=O)c1cnccn1)B(O)O [bortezomib, [(1R)-3-methyl-1-[[(2S)-1-oxo-3-phenyl-2-[(pyrazinylcarbonyl)amino]propyl]amino]butyl] boronic acid] as the molecule, how does the degradation (PEG 300:Ethanol:Water (40:10:50), 25° C., 24 hours) read?
**A.** about 20%

**Q.** And the degradation (PG:Ethanol:Water, 25° C., 8 months)?
**A.** 20%

**Q.** And the degradation (ethanol and normal saline 2:98, pH 2.8, 25° C., 1 month)?
**A.** 20%
